For experiment [1], the system named is OPH-E. coli/S. oneidensis mixtures. Type of experiment: cell-based.
For experiment [2] the test system is unchanged. The class given is cell-based. Particulars: for anodic current: 20 μM; for charge produced / charge relative to cell only baseline: at 24 hours.
For experiment [3], the system named is transcription factor DmpR. The class given is cell-based, Pseudomonas spp. CF600.
Experiment [4] deals with transcription factor DmpR. Type of experiment: cell-based, Pseudomonas spp. CF600. The source holds these as a separate data set.
A further experiment relates to engineered S. oneidensis. The class given is cell-based.
The target in experiment [5] is T1, organophosphate hydrolase (OPH) displayed on E. coli (Brevundimonas diminuta, UniProt P0A434).
T1 construct: expressed in transfected cells; host or cells: E. coli BL21 (DE3) carrying pSKB3-INPNC-OPH, IPTG-induced, lyophilized whole cells
The class given is biochemical, Pseudomonas diminuta.

Experimental findings from patent publication US20240368534A1 (priority 2021, published 2024) are described below.

A word on the Km: it is the substrate concentration at which the rate is half of its maximum.

Read-outs that look alike come from different tables or passages of the source.

With `CCOP(=S)(OCC)Oc1ccc([N+](=O)[O-])cc1` [parathion], in experiment [1], the “increase in GFP fluorescence” value is given as 58 fold. Further, in experiment [2], the total charge accumulated came out at 1.04±0.66 mA*h and the “anodic current” value is “increase in anodic current”.
Consider `CCOC(=O)CC(SP(=O)(OC)OC)C(=O)OCC` (stereo not shown) [malaoxon], for which, in experiment [1], the “GFP expression” value is reported as “GFP expression was not observed”. Besides, in experiment [2], the total charge accumulated was found to be 0.068±0.006 mA*h and the “anodic current” value is “no significant current”.
`Oc1ccc(O)cc1` [hydroquinone]: the “GFP fluorescence response” value in experiment [3] is “very low fluorescence”.
Turning to `O=[N+]([O-])c1ccc(O)cc1` [p-NP, p-nitrophenol], in experiment [4], the “GFP expression response” value is listed as “logarithmic increase in GFP expression”. Moreover, in the experiment with engineered S. oneidensis, the “anodic current” value was “continuous increase in anodic current” and the total charge was found to be 1.32±0.48 mA*h. In addition, in experiment [3], the “increase in GFP fluorescence” value came to 54 fold and the “lowest concentration at which fluorescence observed” value was 6.25 µM.
As for `CCOP(=O)(OCC)Oc1ccc([N+](=O)[O-])cc1` [paraoxon], in the experiment with engineered S. oneidensis, the “anodic current” value is on record as “did not yield a considerable current” and the total charge is given as 0.21±0.02 mA*h. The Km in experiment [5] (read-out: Michaelis constant (KM)) is 198 ± 81.7 µM. The “GFP fluorescence response” value in experiment [3] is on record as “No such increase in the fluorescence”. Besides, in experiment [2], the charge accumulation is 0.140±0.02 mA*h, the “limit of detection of the sensor” value is 0.15 µM, the total charge accumulated turned out to be 1.64±0.18 mA*h and the “anodic current” value was “increase in anodic current”. In experiment [2] (1 μM), the charge produced was 0.101±0.017 mA*h and the “charge relative to cell only baseline” value is recorded as 1.7 times. In experiment [2] (5 μM), the charge produced was 0.180±0.018 mA*h and the “charge relative to cell only baseline” value is “approximately three times higher”.
With `NCCc1ccc(O)c(O)c1` [dopamine], in experiment [3], the “GFP fluorescence response” value is listed as “very low fluorescence”.
As for `Cc1ccc(O)c(O)c1` [4-methylcatechol], in experiment [3], the “GFP fluorescence response” value is listed as “very low fluorescence”.
`COP(=O)(OC)Oc1ccc([N+](=O)[O-])cc1` [paraoxon-methyl]: the “increase in GFP fluorescence” value in experiment [1] was determined as 48 fold. For the same compound, in experiment [5], the degradation rate result is reported as “significantly enhanced degradation rates” and the “rate of p-NP production” value is “very slow rates of p-NP production”. For the same compound, in experiment [2], the total charge accumulated was determined as 1.03±0.31 mA*h and the “anodic current” value is “increase in anodic current”.
